System: 857933-349-R-J2-PDC complex spheroids, viability
Assay: Anticancer human tumor 857933-349-R-J2-PDC patient-derived colon adenocarcinoma cell line growth inhibition [GQUAD]
Settings: for IC50: curve of first compound; for viability, T/C: stronger effect = lower value
Summary of the method: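 Viability of tumor cells grown as complex spheroids with endothelial and stromal cells, exposed to drug combinations. Top concentration at or near clinical Cmax (else 10 microM), diluted in half-log increments.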

[1] = second compound 0.0316 µM, first compound 0.0316 µM
[2] = second compound 0.0316 µM, first compound 0.1 µM
[3] = second compound 0.0316 µM, first compound 0.316 µM
[4] = second compound 0.0316 µM, first compound 1 µM
[5] = second compound 0.0316 µM, first compound 3.16 µM
[6] = second compound 0.0316 µM, first compound 10 µM
[7] = second compound 0.1 µM, first compound 0.0316 µM
[8] = second compound 0.1 µM, first compound 0.1 µM
[9] = second compound 0.1 µM, first compound 0.316 µM
[10] = second compound 0.1 µM, first compound 1 µM
[11] = second compound 0.1 µM, first compound 3.16 µM
[12] = second compound 0.1 µM, first compound 10 µM
[13] = second compound 0.316 µM, first compound 0.0316 µM
[14] = second compound 0.316 µM, first compound 0.1 µM
[15] = second compound 0.316 µM, first compound 0.316 µM
[16] = second compound 0.316 µM, first compound 1 µM
[17] = second compound 0.316 µM, first compound 3.16 µM
[18] = second compound 0.316 µM, first compound 10 µM
[19] = second compound 1 µM, first compound 0.0316 µM
[20] = second compound 1 µM, first compound 0.1 µM
[21] = second compound 1 µM, first compound 0.316 µM
[22] = second compound 1 µM, first compound 1 µM
[23] = second compound 1 µM, first compound 3.16 µM
[24] = second compound 1 µM, first compound 10 µM
[25] = second compound 3.16 µM, first compound 0.0316 µM
[26] = second compound 3.16 µM, first compound 0.1 µM
[27] = second compound 3.16 µM, first compound 0.316 µM
[28] = second compound 3.16 µM, first compound 1 µM
[29] = second compound 3.16 µM, first compound 3.16 µM
[30] = second compound 3.16 µM, first compound 10 µM
[31] = second compound 10 µM, first compound 0.0316 µM
[32] = second compound 10 µM, first compound 0.1 µM
[33] = second compound 10 µM, first compound 0.316 µM
[34] = second compound 10 µM, first compound 1 µM
[35] = second compound 10 µM, first compound 3.16 µM
[36] = second compound 10 µM, first compound 10 µM
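Note: spheroids exposed to compounds for one week before readout.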
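Throughout, for viability, T/C: percent viability relative to vehicle DMSO wells taken as 100%.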

CC(C)(O)C1CCC(Nc2ccc3ncc(-c4cccc(C(F)(F)F)c4)n3n2)CC1 (stereo unspecified) + Cc1cnc(CNC(=O)c2c(=O)c3ccc(N4CCCN(C)CC4)nc3n3c2sc2ccccc23)cn1
IC50 (second compound 0.0316 µM): 0.487 µM
IC50 (second compound 0.1 µM): 0.151 µM
IC50 (second compound 0.316 µM): < 0.0316 µM
IC50 (second compound 1 µM): < 0.0316 µM
IC50 (second compound 3.16 µM): < 0.0316 µM
IC50 (second compound 10 µM): < 0.0316 µM
viability, T/C [1]: 86.5%
viability, T/C [2]: 76%
viability, T/C [3]: 73.6%
viability, T/C [4]: 11.1%
viability, T/C [5]: 0.4%
viability, T/C [6]: 0.23%
viability, T/C [7]: 53.4%
viability, T/C [8]: 57.2%
viability, T/C [9]: 41.4%
viability, T/C [10]: 14%
viability, T/C [11]: 0.2%
viability, T/C [12]: 0.19%
viability, T/C [13]: 16.1%
viability, T/C [14]: 12.6%
viability, T/C [15]: 8.9%
viability, T/C [16]: 7.61%
viability, T/C [17]: 0.11%
viability, T/C [18]: 0.07%
viability, T/C [19]: 3.09%
viability, T/C [20]: 3%
viability, T/C [21]: 2.95%
viability, T/C [22]: 3.84%
viability, T/C [23]: 0.05%
viability, T/C [24]: 0.07%
viability, T/C [25]: 1.54%
viability, T/C [26]: 1.85%
viability, T/C [27]: 2.05%
viability, T/C [28]: 1.16%
viability, T/C [29]: 0.11%
viability, T/C [30]: 0.12%
viability, T/C [31]: 0.23%
viability, T/C [32]: 0.19%
viability, T/C [33]: 0.3%
viability, T/C [34]: 0.28%
viability, T/C [35]: 0.22%
viability, T/C [36]: 0.21%

CCCS(=O)(=O)Nc1ccc(F)c(C(=O)c2c[nH]c3ncc(-c4ccc(Cl)cc4)cc23)c1F + CN(C)c1ccc(Nc2c3ccc(NC(=O)CCN4CCCC4)cc3nc3cc(NC(=O)CCN4CCCC4)ccc23)cc1
IC50 (second compound 0.0316 µM): 5.65 µM
IC50 (second compound 0.1 µM): 5.53 µM
IC50 (second compound 0.316 µM): 5.65 µM
IC50 (second compound 1 µM): 5.45 µM
IC50 (second compound 3.16 µM): 5.03 µM
IC50 (second compound 10 µM): 3.18 µM
viability, T/C [1]: 108%
viability, T/C [2]: 101%
viability, T/C [3]: 102%
viability, T/C [4]: 96.8%
viability, T/C [5]: 95.5%
viability, T/C [6]: 5.26%
viability, T/C [7]: 110%
viability, T/C [8]: 106%
viability, T/C [9]: 96.4%
viability, T/C [10]: 106%
viability, T/C [11]: 92.5%
viability, T/C [12]: 5.04%
viability, T/C [13]: 104%
viability, T/C [14]: 101%
viability, T/C [15]: 96.5%
viability, T/C [16]: 96.7%
viability, T/C [17]: 95.3%
viability, T/C [18]: 5.41%
viability, T/C [19]: 101%
viability, T/C [20]: 89.6%
viability, T/C [21]: 96.7%
viability, T/C [22]: 93.1%
viability, T/C [23]: 89.9%
viability, T/C [24]: 5.58%
viability, T/C [25]: 83.5%
viability, T/C [26]: 73.5%
viability, T/C [27]: 81.2%
viability, T/C [28]: 75.8%
viability, T/C [29]: 79.7%
viability, T/C [30]: 7.65%
viability, T/C [31]: 63.1%
viability, T/C [32]: 66.5%
viability, T/C [33]: 56.8%
viability, T/C [34]: 59.1%
viability, T/C [35]: 51%
viability, T/C [36]: 12.3%

C=CC(=O)N1CCN(c2nc(=O)n(-c3c(C)ccnc3C(C)C)c3nc(-c4c(O)cccc4F)c(F)cc23)C(C)C1 (stereo unspecified) + CN(C)c1ccc(Nc2c3ccc(NC(=O)CCN4CCCC4)cc3nc3cc(NC(=O)CCN4CCCC4)ccc23)cc1
IC50 (second compound 0.0316 µM): > 10 µM
IC50 (second compound 0.1 µM): > 10 µM
IC50 (second compound 0.316 µM): > 10 µM
IC50 (second compound 1 µM): > 10 µM
IC50 (second compound 3.16 µM): > 10 µM
IC50 (second compound 10 µM): > 10 µM
viability, T/C [1]: 114%
viability, T/C [2]: 91.7%
viability, T/C [3]: 108%
viability, T/C [4]: 97.3%
viability, T/C [5]: 114%
viability, T/C [6]: 112%
viability, T/C [7]: 104%
viability, T/C [8]: 102%
viability, T/C [9]: 102%
viability, T/C [10]: 102%
viability, T/C [11]: 108%
viability, T/C [12]: 113%
viability, T/C [13]: 105%
viability, T/C [14]: 99.5%
viability, T/C [15]: 99%
viability, T/C [16]: 99.8%
viability, T/C [17]: 112%
viability, T/C [18]: 107%
viability, T/C [19]: 97.2%
viability, T/C [20]: 90.8%
viability, T/C [21]: 102%
viability, T/C [22]: 99.6%
viability, T/C [23]: 113%
viability, T/C [24]: 98.3%
viability, T/C [25]: 90.2%
viability, T/C [26]: 79.5%
viability, T/C [27]: 91.4%
viability, T/C [28]: 89.9%
viability, T/C [29]: 100%
viability, T/C [30]: 88%
viability, T/C [31]: 73%
viability, T/C [32]: 77.9%
viability, T/C [33]: 70.8%
viability, T/C [34]: 77.5%
viability, T/C [35]: 82.3%
viability, T/C [36]: 79.3%

From PubChem BioAssay AID2060491 (Molecular Pharmacology Branch, DTP, NCI, 2025)
